± gives the expanded uncertainty stated by the source.
Assays:
[1] = for Normal melting temperature: Crystal 1, DTA; for Triple point temperature: Crystal 2, DSC
[2] = Molar enthalpy of transition or fusion; conditions: DSC

**Q.** Which results are given for `CCCC[P+](CCCC)(CCCC)CCCS(=O)(=O)[O-]` [3-(tributylphosphonio)propane-1-sulfonate]?
**A.** Normal melting temperature [1]: 160.02 ± 0.71 °C; Triple point temperature [1]: 379.9 ± 0.94 K; Molar enthalpy of transition or fusion ([2]; Crystal 1): 2.32 ± 0.526 kcal/mol; Molar enthalpy of transition or fusion ([2]; Crystal 2): 3.08 ± 0.526 kcal/mol

**Q.** With `CC[N+](CC)(CC)CCCS(=O)(=O)[O-]` [3-(triethylammonio)propane-1-sulfonate] as the compound, how does the Normal melting temperature [1] read?
**A.** 172.88 ± 0.71 °C

**Q.** What about the Triple point temperature [1] of the same compound?
**A.** 360.22 ± 0.94 K

**Q.** What about the “Molar enthalpy of transition or fusion” value ([2]; Crystal 1) of the same compound?
**A.** 3.66 ± 0.359 kcal/mol

**Q.** What about the “Molar enthalpy of transition or fusion” value ([2]; Crystal 2) of the same compound?
**A.** 2.32 ± 0.335 kcal/mol

**Q.** Which Normal melting temperature [1] does the source give for `CCCCCC[N+](CCCCCC)(CCCCCC)CCCS(=O)(=O)[O-]` [3-(trihexylammonio)propane-1-sulfonate] here?
**A.** 206.74 ± 0.71 °C

**Q.** And the “Molar enthalpy of transition or fusion” value ([2]; Crystal 1)?
**A.** 6.79 ± 0.645 kcal/mol

**Q.** Which Normal melting temperature [1] does the source give for `CCCC[P+](CCCC)(CCCC)CCCCS(=O)(=O)[O-]` [4-(tributylphosphonio)butane-1-sulfonate] here?
**A.** 173.57 ± 0.71 °C

**Q.** What about the “Molar enthalpy of transition or fusion” value ([2]; Crystal 1) of the same compound?
**A.** 4.71 ± 0.55 kcal/mol

**Q.** Which results are given for `CCCCCC[N+](CCCCCC)(CCCCCC)CCCCS(=O)(=O)[O-]` [4-(trihexylammonio)butane-1-sulfonate]?
**A.** Normal melting temperature [1]: 199.60 ± 0.71 °C; Triple point temperature [1]: 407.51 ± 0.94 K; Molar enthalpy of transition or fusion ([2]; Crystal 1): 4.31 ± 0.669 kcal/mol; Molar enthalpy of transition or fusion ([2]; Crystal 2): 1.43 ± 0.669 kcal/mol

**Q.** What does the source list for `O=S(=O)([O-])CCC[n+]1ccccc1` [[PyC3S]]?
**A.** Normal melting temperature [1]: 273.89 ± 0.71 °C; Molar enthalpy of transition or fusion ([2]; Crystal 1): 9.44 ± 0.335 kcal/mol
